Test results: patent US10017481B2, “Conformationally constrained, fully synthetic macrocyclic compounds” (POLYPHOR AG, priority 2012, dated 2018)

How the values were obtained:
Format in all cases: in vitro ADME
[1] = Plasma stability assay, human plasma; conditions: for Plasma Stability 240 min hum [% remain.]: human plasma, 10 μM, 37° C.; for half-life at 10 μM: human, plasma
Procedure, shortened: (§1)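 Compounds at 10 μM were incubated at 37 °C in triplicate in sodium citrate-stabilized plasma (human, or pooled mixed-gender CD-1 mouse). Samples taken at 0–240 min were acetonitrile-quenched and analyzed by HPLC/MS/MS. Remaining peak area as % of t0 gave endpoint stability (%) and half-life (min).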

[2] = Plasma stability assay, CD-1 mouse plasma; conditions: for Plasma Stability 240 min mouse/(rat) [% remain.]: CD-1 mouse plasma, 10 μM, 37° C.; for half-life at 10 μM: both sexes, CD-1, mouse, plasma
Procedure, shortened: as §1

[3] = Metabolic stability assay, human liver microsomes; conditions: human microsomes, 10 μM, 37° C.; for half-life at 10 μM: both sexes, liver microsomes, 1 mg/ml protein, read-out: Metabolic Stability T ½ [min] hum
Procedure, shortened: (§2)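 Pooled human (50 donors, mixed gender) or CD-1 mouse microsomes at 1 mg/mL protein, 10 μM compound, 100 mM potassium phosphate with NADPH-regenerating system, 37 °C in duplicate. Samples at 0, 5, 10, 20, 60 min analysed by HPLC/MS/MS; turnover as % of 0-min value and T½ (min) calculated.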

[4] = Metabolic stability assay, CD-1 mouse microsomes; conditions: CD-1 mouse microsomes, 10 μM, 37° C.; for half-life at 10 μM: both sexes, 1 mg/ml protein, read-out: Metabolic Stability T ½ [min] mouse/(rat)
Procedure, shortened: as §2

Compound | Plasma Stability 240 min hum [% remain.] [1] | half-life at 10 μM [1] | Plasma Stability 240 min mouse/(rat) [% remain.] [2] | half-life at 10 μM [2] | half-life at 10 μM [3] | Metabolic Stability 60 min hum [% remain.] [3] | Metabolic Stability 60 min mouse/(rat) [% remain.] [4] | half-life at 10 μM [4]
C[C@H]1COc2cccc(c2)-c2cccc(c2)C(=O)N(C)[C@H](C(=O)NCc2cccc3ccccc23)CCC(=O)N1 [Ex. 74, (9S,14S)-9,15-dimethyl-N-(1-naphthylmethyl)-11,16-dioxo-7-oxa-10,15-diazatricyclo[15.3.1.1^2,6]docosa-1(21),2(22),3,5,17,19-hexaene-14-carboxamide] | 100 % remain. | > 4 h | 67 % remain. | > 4 h | 7 min | 1 % remain. | 0 % remain. | 3 min
C[C@H]1COc2cccc(c2)-c2cccc(c2)C(=O)N(C)[C@H](C(=O)NCc2cccnc2)CCC(=O)N1 [Ex. 75, (9S,14S)-9,15-dimethyl-11,16-dioxo-N-(3-pyridinylmethyl)-7-oxa-10,15-diazatricyclo[15.3.1.1^2,6]docosa-1(21),2(22),3,5,17,19-hexaene-14-carboxamide] | 93 % remain. | > 4 h | 55 % remain. | > 4 h | 21 min | 12 % remain. | 48 % remain. | 53 min
COCCNC(=O)[C@@H]1CCC(=O)N[C@@H](C)COc2cccc(c2)-c2cccc(c2)C(=O)N1C [Ex. 77, (9S,14S)-N-(2-methoxyethyl)-9,15-dimethyl-11,16-dioxo-7-oxa-10,15-diazatricyclo[15.3.1.1^2,6]docosa-1(21),2(22),3,5,17,19-hexaene-14-carboxamide] | 96 % remain. | > 4 h | 85 % remain. | > 4 h | 44 min | 41 % remain. | 75 % remain. | > 60 min
C[C@H]1COc2cccc(c2)-c2cccc(c2)C(=O)N(C)[C@H](C(=O)NCC(F)(F)F)CCC(=O)N1 [Ex. 78, (9S,14S)-9,15-dimethyl-11,16-dioxo-N-(2,2,2-trifluoroethyl)-7-oxa-10,15-diazatricyclo[15.3.1.1^2,6]docosa-1(21),2(22),3,5,17,19-hexaene-14-carboxamide] | 100 % remain. | > 4 h | 86 % remain. | > 4 h | > 60 min | 99 % remain. | 92 % remain. | > 60 min
C[C@H]1COc2cccc(c2)-c2cccc(c2)C(=O)N(C)[C@H](C(=O)NC2CC2)CCC(=O)N1 [Ex. 79, (9S,14S)-N-cyclopropyl-9,15-dimethyl-11,16-dioxo-7-oxa-10,15-diazatricyclo[15.3.1.1^2,6]docosa-1(21),2(22),3,5,17,19-hexaene-14-carboxamide] | 100 % remain. | > 4 h | 60 % remain. | > 4 h | > 60 min | 95 % remain. | 73 % remain. | > 60 min
CC(C)CNC(=O)[C@@H]1CCC(=O)N[C@@H](C)COc2cccc(c2)-c2cccc(c2)C(=O)N1C [Ex. 80, (9S,14S)-N-isobutyl-9,15-dimethyl-11,16-dioxo-7-oxa-10,15-diazatricyclo [15.3.1.1^2,6]docosa-1(21),2(22),3,5,17,19-hexaene-14-carboxamide] | 90 % remain. | > 4 h | 84 % remain. | > 4 h | 19 min | 6 % remain. | 19 % remain. | 24 min
C[C@H]1COc2cccc(c2)-c2cccc(c2)C(=O)N(C)[C@H](C(=O)NCCO)CCC(=O)N1 [Ex. 81, (9S,14S)-N-(2-hydroxyethyl)-9,15-dimethyl-11,16-dioxo-7-oxa-10,15-diazatricyclo[15.3.1.1^2,6]docosa-1(21),2(22),3,5,17,19-hexaene-14-carboxamide] | 88 % remain. | > 4 h | 100 % remain. | > 4 h | > 60 min | 100 % remain. | 97 % remain. | > 60 min
C[C@H]1COc2cccc(c2)-c2cccc(c2)C(=O)N(C)[C@H](C(=O)NCC(=O)O)CCC(=O)N1 [Ex. 83, 2-({[(9S,14S)-9,15-dimethyl-11,16-dioxo-7-oxa-10,15-diazatricyclo[15.3.1.1^2,6]docosa-1(21),2(22),3,5,17,19-hexaen-14-yl]carbonyl}amino)acetic acid] | 85 % remain. | > 4 h | 93 % remain. | > 4 h | > 60 min | 85 % remain. | 96 % remain. | > 60 min
C[C@H]1COc2cccc(c2)-c2cccc(c2)C(=O)N(C)[C@H](C(=O)NCCN(C)C)CCC(=O)N1 [Ex. 84, (9S,14S)-N-[2-(dimethylamino)ethyl]-9,15-dimethyl-11,16-dioxo-7-oxa-10,15-diazatricyclo[15.3.1.1^2,6]docosa-1(21),2(22),3,5,17,19-hexaene-14-carboxamide] | 99 % remain. | > 4 h | 56 % remain. | > 4 h | > 60 min | 97 % remain. | 71 % remain. | > 60 min
C[C@H]1COc2cccc(c2)-c2cccc(c2)C(=O)N(C)[C@H](C(=O)NCCCN2CCCC2)CCC(=O)N1 [Ex. 85, (9S,14S)-9,15-dimethyl-11,16-dioxo-N-[3-(1-pyrrolidinyl)propyl]-7-oxa-10,15-diazatricyclo[15.3.1.1^2,6]docosa-1(21),2(22),3,5,17,19-hexaene-14-carboxamide] | 100 % remain. | > 4 h | 88 % remain. | > 4 h | > 60 min | 100 % remain. | 80 % remain. | > 60 min
C[C@H]1COc2cccc(c2)-c2cccc(c2)C(=O)N(C)[C@H](C(=O)N2CCOCC2)CCC(=O)N1 [Ex. 87, (9S,14S)-9,15-dimethyl-14-(morpholinocarbonyl)-7-oxa-10,15-diazatricyclo [15.3.1.1^2,6]docosa-1(21),2(22),3,5,17,19-hexaene-11,16-dione] | 100 % remain. | > 4 h | 90 % remain. | > 4 h | 27 min | 17 % remain. | 63 % remain. | 60 min
C[C@H]1COc2cccc(c2)-c2cccc(c2)C(=O)N(C)[C@H](C(=O)NCc2ccc3ccccc3c2)CCC(=O)N1 [Ex. 89, (9S,14S)-9,15-dimethyl-N-(2-naphthylmethyl)-11,16-dioxo-7-oxa-10,15-diazatricyclo[15.3.1.1^2,6]docosa-1(21),2(22),3,5,17,19-hexaene-14-carboxamide] | 100 % remain. | > 4 h | 76 % remain. | > 4 h | 13 min | 8 % remain. | 2 % remain. | 10 min
